Laboratory results from patent publication US20240239741A1, “META-ESTER AROMATIC DIAMINES, METHOD FOR PRODUCING SAME, AND POLYIMIDE HAVING SAID META-ESTER AROMATIC DIAMINES AS RAW MATERIAL” (SEIKA CORPORATION, priority 2021, published 2024).
Where two headings read alike, the source gives them in different places.

Experiment: Solubility of Diamine in various kinds of solvents
Type: physicochemical
Settings: for solubility: organic solvent or mixture, thermodynamic from solid, Sample 30 mg/solvent 2 mL
Experimental: Melting points and solubilities in various kinds of solvents of the diamines obtained in the above-described Examples and Comparative Examples are shown in Table 1 below. In the following Table 1, the evaluation +++ indicates soluble at room temperature, the evaluation ++ indicates soluble by heating, the evaluation + indicates half-soluble by heating, and the evaluation − indicates insoluble in solvent.
Sample 30 mg/solvent 2 mL, the evaluation +++ indicates soluble at room temperature, the evaluation ++ indicates soluble by heating, the evaluation + indicates half-soluble by heating, and the evaluation − indicates insoluble.

[1] = MC (methyl cellosolve), MC (methyl cello solve), read-out: Solubility in MC
[2] = Acetone, read-out: Solubility in Acetone
[3] = Acetonitrile, read-out: Solubility in Acetonitrile
[4] = Chloroform, read-out: Solubility in Chloroform
[5] = DMF (N,N-dimethylformamide), read-out: Solubility in DMF
[6] = DMSO (dimethylsulfoxide), read-out: Solubility in DMSO
[7] = Ethyl acetate, read-out: Solubility in Ethyl acetate
[8] = Isopropanol, read-out: Solubility in Isopropanol
[9] = THF, read-out: Solubility in THF
[10] = Toluene, read-out: Solubility in Toluene
[11] = m-cresol, read-out: Solubility in m-cresol
[12] = Methanol, read-out: Solubility in Methanol

Nc1ccc(C(=O)Oc2ccc(OC(=O)c3ccc(N)cc3)cc2)cc1 [Com. Ex. 1, 1,4-bis(4-aminobenzoyloxy)benzene, reference compound]
Solubility in the various kinds of solvents (in words): hot-dissolved only in DMF
solubility [1]: < 15 mg/mL
solubility [2]: < 15 mg/mL
solubility [3]: < 15 mg/mL
solubility [4]: < 15 mg/mL
solubility [5]: < 15 mg/mL
solubility [6]: < 15 mg/mL
solubility [7]: < 15 mg/mL
solubility [8]: < 15 mg/mL
solubility [9]: < 15 mg/mL
solubility [10]: < 15 mg/mL
solubility [11]: < 15 mg/mL

Cc1cc(OC(=O)c2ccc(N)cc2)ccc1OC(=O)c1ccc(N)cc1 [Com. Ex. 2, 2,5-bis(4-aminobenzoyloxy)toluene, reference compound]
Solubility in the various kinds of solvents (in words): hot-dissolved barely in a high-polar solvent
solubility [1]: < 15 mg/mL
solubility [2]: < 15 mg/mL
solubility [3]: < 15 mg/mL
solubility [4]: < 15 mg/mL
solubility [5]: > 15 mg/mL
solubility [6]: < 15 mg/mL
solubility [7]: < 15 mg/mL
solubility [8]: < 15 mg/mL
solubility [12]: < 15 mg/mL
solubility [9]: < 15 mg/mL
solubility [10]: < 15 mg/mL
solubility [11]: < 15 mg/mL

Nc1cccc(C(=O)Oc2ccc(C(c3ccc(OC(=O)c4cccc(N)c4)cc3)(C(F)(F)F)C(F)(F)F)cc2)c1 [Example 2, 2,2′-bis[4-(3-aminobenzoyloxy)phenyl]hexafluoropropane]
Solubility in the various kinds of solvents (in words): easily dissolved in various solvents
solubility [1]: > 15 mg/mL
solubility [2]: > 15 mg/mL
solubility [3]: > 15 mg/mL
solubility [4]: < 15 mg/mL
solubility [5]: > 15 mg/mL
solubility [6]: > 15 mg/mL
solubility [7]: > 15 mg/mL
solubility [8]: < 15 mg/mL
solubility [12]: > 15 mg/mL
solubility [9]: > 15 mg/mL
solubility [10]: < 15 mg/mL
solubility [11]: > 15 mg/mL

Nc1cccc(C(=O)Oc2ccc(S(=O)(=O)c3ccc(OC(=O)c4cccc(N)c4)cc3)cc2)c1 [Example 4, bis[4-(3-aminobenzoyloxy)phenyl]sulfone]
solubility [1]: < 15 mg/mL
solubility [2]: < 15 mg/mL
solubility [3]: < 15 mg/mL
solubility [4]: < 15 mg/mL
solubility [5]: > 15 mg/mL
solubility [6]: > 15 mg/mL
solubility [7]: < 15 mg/mL
solubility [8]: < 15 mg/mL
solubility [12]: < 15 mg/mL
solubility [9]: < 15 mg/mL
solubility [10]: < 15 mg/mL
solubility [11]: > 15 mg/mL

Cc1cc(OC(=O)c2cccc(N)c2)ccc1OC(=O)c1cccc(N)c1 [Example 6, 1-methyl-2,5-bis(3-aminobenzoyloxy)benzene]
solubility [1]: > 15 mg/mL
solubility [2]: > 15 mg/mL
solubility [3]: > 15 mg/mL
solubility [4]: > 15 mg/mL
solubility [5]: > 15 mg/mL
solubility [6]: > 15 mg/mL
solubility [7]: > 15 mg/mL
solubility [8]: < 15 mg/mL
solubility [12]: < 15 mg/mL
solubility [9]: > 15 mg/mL
solubility [10]: < 15 mg/mL
solubility [11]: > 15 mg/mL

Cc1cc(OC(=O)c2cccc(N)c2)c(C)c(C)c1OC(=O)c1cccc(N)c1 [Example 8, 1,2,4-trimethyl-3,6-bis(3-aminobenzoyloxy)benzene]
solubility [1]: > 15 mg/mL
solubility [2]: > 15 mg/mL
solubility [3]: > 15 mg/mL
solubility [4]: > 15 mg/mL
solubility [5]: > 15 mg/mL
solubility [6]: > 15 mg/mL
solubility [7]: > 15 mg/mL
solubility [8]: < 15 mg/mL
solubility [12]: < 15 mg/mL
solubility [9]: > 15 mg/mL
solubility [10]: < 15 mg/mL
solubility [11]: > 15 mg/mL
